The term IC50 denotes the concentration at which inhibition is half-maximal. By melting point is commonly meant the temperature of the solid-liquid transition.

For one data set, the target named is T1, Human COX-1 (Homo sapiens, UniProt P23219).
T1 construct: 500 μl of peripheral blood collected from a healthy volunteer; endogenous in cells; host or cells: human whole peripheral blood from a healthy volunteer, stimulated with calcium ionophore A23187
The data set is described as follows: Inhibitory activity against human COX-1 using peripheral blood (calcium ionophore A23187, thromboxane B2 EIA). The format is cell-based. The following applies: 37° C. 4.5 hours then A23187 500 μM 30 minutes. The method, then:
(§1) Method for Measuring Inhibitory Activity Against Human COX-1 and COX-2 Using Peripheral Blood
(§2) 1 μl of a solution of the compound of the present invention in DMSO was added to 500 μl of peripheral blood collected from a healthy volunteer.
In the case of measuring COX-1 activity, after incubating at 37° C. for 4.5 hours, calcium ionophore A23187 was added to a final concentration of 500 μM followed by additional incubation at 37° C. for 30 minutes and transferring to ice to stop the reaction.

A further data set concerns the target T2, Human COX-2 (Homo sapiens, UniProt P35354).
T2 construct: 500 μl of peripheral blood collected from a healthy volunteer; endogenous in cells; host or cells: human whole peripheral blood from a healthy volunteer, stimulated with LPS
T2 sequence (P35354 18-604): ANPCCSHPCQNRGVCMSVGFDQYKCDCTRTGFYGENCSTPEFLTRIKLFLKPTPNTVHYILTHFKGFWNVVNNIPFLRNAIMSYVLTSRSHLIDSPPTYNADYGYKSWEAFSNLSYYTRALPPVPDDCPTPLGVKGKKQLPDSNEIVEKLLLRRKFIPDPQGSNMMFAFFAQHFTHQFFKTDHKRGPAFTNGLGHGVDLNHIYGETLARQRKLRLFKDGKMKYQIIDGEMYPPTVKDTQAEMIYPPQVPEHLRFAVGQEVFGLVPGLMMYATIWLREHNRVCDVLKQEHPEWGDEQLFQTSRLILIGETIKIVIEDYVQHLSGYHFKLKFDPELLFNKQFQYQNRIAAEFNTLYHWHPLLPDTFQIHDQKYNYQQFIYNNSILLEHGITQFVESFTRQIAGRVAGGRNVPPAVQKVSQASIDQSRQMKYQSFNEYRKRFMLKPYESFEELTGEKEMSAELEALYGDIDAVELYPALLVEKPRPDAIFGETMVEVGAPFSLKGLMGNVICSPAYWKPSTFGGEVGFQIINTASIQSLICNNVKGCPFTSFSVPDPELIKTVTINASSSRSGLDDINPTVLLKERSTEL
The data set is described as follows: Inhibitory activity against human COX-2 using peripheral blood (LPS-stimulated, thromboxane B2 EIA). Format: cell-based. The following applies: LPS 10 μg/ml, 37° C. 5 hours. How it is done:
as §1, §2
In the case of measuring COX-2 activity, LPS (E. coli 026:B6) was added onto blood to which the compound has been added to a concentration of 10 μg/ml followed by incubating at 37° C. for 5 hours and transferring onto ice to stop the reaction.

T1 sequence (P23219 24-599): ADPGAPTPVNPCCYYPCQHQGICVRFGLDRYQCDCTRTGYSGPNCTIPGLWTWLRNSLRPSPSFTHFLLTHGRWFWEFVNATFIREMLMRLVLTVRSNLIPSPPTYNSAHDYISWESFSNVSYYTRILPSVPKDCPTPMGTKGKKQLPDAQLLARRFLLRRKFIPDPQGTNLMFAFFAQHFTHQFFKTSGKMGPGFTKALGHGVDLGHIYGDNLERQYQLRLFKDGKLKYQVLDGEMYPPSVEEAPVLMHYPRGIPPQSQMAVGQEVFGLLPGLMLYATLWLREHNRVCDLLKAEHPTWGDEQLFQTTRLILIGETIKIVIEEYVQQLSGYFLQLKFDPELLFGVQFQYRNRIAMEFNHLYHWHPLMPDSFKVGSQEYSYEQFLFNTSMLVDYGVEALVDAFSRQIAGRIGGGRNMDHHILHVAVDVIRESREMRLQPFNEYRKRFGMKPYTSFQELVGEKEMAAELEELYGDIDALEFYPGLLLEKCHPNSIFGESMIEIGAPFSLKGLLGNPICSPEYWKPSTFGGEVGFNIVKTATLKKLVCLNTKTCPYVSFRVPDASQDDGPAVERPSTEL

As to `CS(=O)(=O)c1cnc2c(c1)cc(-c1ccco1)n2Cc1ccc(F)cc1` [Example 1, 2-(2-Furyl)-1-(4-fluorobenzyl)-5-methanesulfonyl-1H-pyrrolo[2,3-b]pyridine], the values for the IC50 at Human COX-1 and against Human COX-2 were above 20000 nM and 150 nM, respectively.

For `CS(=O)(=O)c1ccc2c(c1)cc(C1=CCOCC1)n2Cc1ccc(F)cc1` [Example 14, 2-(5,6-Dihydro-2H-4-pyranyl)-1-(4-fluorobenzyl)-5-methanesulfonyl-indole], the half-inhibitory concentration (IC50) at Human COX-1 is above 20000 nM; on Human COX-2, 100 nM.

In the case of `CS(=O)(=O)c1cnc2c(c1)cc(-c1ccco1)n2CC1CCCCC1` [Example 12, 2-(2-Furanyl)-1-cyclohexylmethyl-5-methanesulfonyl-1H-pyrrolo[2,3-b]pyridine], the IC50 was above 20000 nM on Human COX-1 and 150 nM against Human COX-2.

Turning to `CS(=O)(=O)c1cnc2c(c1)cc(-c1ncco1)n2Cc1ccc(F)cc1` [Example 3, 1-(4-Fluorobenzyl)-2-(oxazol-2-yl)-5-methanesulfonyl-1H-pyrrolo[2,3-b]pyridine], the melting point fell in the range of 200 to 201 °C. For the same compound, at Human COX-1, the IC50 is above 20000 nM. This compound displayed an IC50 at Human COX-2 of 300 nM.

In the case of `CS(=O)(=O)c1cnc2c(c1)cc(-c1ccco1)n2Cc1ccccn1` [Example 10, 2-(2-Furanyl)-5-methanesulfonyl-1-(2-pyridylmethyl)-1H-pyrrolo[2,3-b]pyridine], the IC50 was above 20000 nM at Human COX-1 and 1500 nM against Human COX-2.

`CS(=O)(=O)c1ccc2c(c1)cc(-c1ccco1)n2CC1CCCCC1` [Example 9, 1-Cyclohexylmethyl-2-(2-furanyl)-5-methanesulfonylindole]: the figures for the IC50 at Human COX-1 and against Human COX-2 were above 20000 nM and 2000 nM, respectively.

Regarding `CS(=O)(=O)c1cnc2c(c1)cc(-c1ncccn1)n2CC1CCCCC1` [Example 7, 1-Cyclohexylmethyl-5-methanesulfonyl-2-(2-pyrimidinyl)-1H-pyrrolo[2,3-b]pyridine], the results for the IC50 at Human COX-1 and at Human COX-2 were above 20000 nM and 1500 nM, respectively.

Consider `CS(=O)(=O)c1cnc2c(c1)cc(-c1ccccn1)n2Cc1ccc(F)cc1` [Example 5, 5-Methanesulfonyl-2-(2-pyridyl)-1-(4-fluorobenzyl)-1H-pyrrolo[2,3-b]pyridine], for which the IC50 on Human COX-1 was above 20000 nM; against Human COX-2 it was 400 nM.

Regarding `CS(=O)(=O)c1ccc2c(c1)cc(-c1ccco1)n2Cc1ccc(F)cc1` [Example 8, 2-(2-Furanyl)-1-(4-fluorobenzyl)-5-methanesulfonyl-1H-indole], the IC50 at Human COX-1 is above 20000 nM; on Human COX-2, 800 nM.

Consider `CS(=O)(=O)c1ccc2c(c1)cc(-c1nnco1)n2Cc1ccc(F)cc1` [Example 4, 1-(4-Fluorobenzyl)-5-methanesulfonyl-2-([1,3,4]oxadiazol-2-yl)indole], for which the IC50 is above 20000 nM on Human COX-1 and 4000 nM on Human COX-2.

Consider `CNC(=O)c1ccc(-c2cc3cc(S(C)(=O)=O)ccc3n2Cc2ccc(F)cc2)nc1` [Example 17, 1-(4-Fluorobenzyl)-5-methanesulfonyl-2-(5-methylaminocarbonylpyridin-2-yl)indole], for which the IC50 at Human COX-1 was above 20000 nM; against Human COX-2, 800 nM.

For `CS(=O)(=O)c1cnc2c(c1)cc(-c1nnco1)n2Cc1ccc(F)cc1` [Example 33, 1-(4-Fluorobenzyl)-5-methanesulfonyl-2-([1,3,4]oxadiazol-2-yl)-1H-pyrrolo[2,3-b]pyridine], the results for the IC50 on Human COX-1 and against Human COX-2 were above 20000 nM and 200 nM, respectively.

Take `CS(=O)(=O)c1ccc2c(c1)cc(C1CCCO1)n2Cc1ccc(F)cc1` (stereo not shown) [Example 13, 2-(2-Tetrahydrofuranyl)-1-(4-fluorobenzyl)-5-methanesulfonyl-indole]: the IC50 is above 10000 nM at Human COX-1 and 4000 nM on Human COX-2.

As for `Cc1ccc(-c2cc3cc(S(C)(=O)=O)cnc3n2Cc2ccc(F)cc2)o1` [Example 11, 1-(4-Fluorobenzyl)-5-methanesulfonyl-2-(5-methylfuran-2-yl)-1H-pyrrolo[2,3-b]pyridine], the IC50 is above 20000 nM on Human COX-1 and 200 nM on Human COX-2.

For `CS(=O)(=O)c1ccc2c(c1)cc(-c1nccs1)n2Cc1ccc(F)cc1` [Example 2, 1-(4-Fluorobenzyl)-5-methanesulfonyl-2-(thiazol-2-yl)indole], the IC50 is above 20000 nM at Human COX-1 and 500 nM on Human COX-2.

The values above are taken from patent US6875770B2, “Indole derivative having heterocycle and mono- or diazaindole derivative” (Chugai Seiyaku Kabushiki Kaisha, priority 1998, dated 2005).
